Source: US6906205B2, “Spiro and dispiro 1,2,4-trioxolane antimalarials” (Medicines for Malaria Venture MMV, priority 2002, dated 2005)
Values after ≈ are worked out from the molar mass of the structure shown.

Tests used:
[1] = system: P. falciparum NF54 strain (sensitive to standard antimalarials); experiment: semiautomated microdilution assay, [3H]-hypoxanthine incorporation, NF54 strain; format: cell-based, Plasmodium falciparum; details: for IC50 (ng/ml) NF54: NF54 strain, 72 h incubation; for IC50: Plasmodium falciparum, NF54, 72 h, read-out: IC50 (ng/ml) NF54
Procedure: (§1) Various OZ compounds were tested by the semiautomated microdilution assay against intraerythrocytic forms of Plasmodium falciparum derived from asynchronous stock cultures.
(§2) Fifty percent inhibitory concentration (IC50) were estimated by Logit regression analysis.

[2] = system: P. falciparum K1 strain (Thailand resistant to chloroquine); experiment: semiautomated microdilution assay, [3H]-hypoxanthine incorporation, K1 strain; format: cell-based, Plasmodium falciparum; details: for IC50 (ng/ml) K1: K1 strain, 72 h incubation; for IC50: Plasmodium falciparum, K1, 72 h, read-out: IC50 (ng/ml) K1
Procedure: as §1, §2

[3] = system: ANKA strain of P. berghei; experiment: single dose STI in vivo screen in infected mice; parameters: species or system Plasmodium berghei; details: for Activity (%) po / Activity (%) sc / Activity (%) SSVpo: percent reduction in parasitemia day 3 post-infection, mice; for Activity (%) po / Survival (days) po: single 10 mg/kg po in 3% ethanol and 7% Tween 80; for Activity (%) sc / Survival (days) sc: single 10 mg/kg sc in 3% ethanol and 7% Tween 80; for Survival (days) po / Survival (days) sc / Survival (days) SSVpo: untreated control 5.6 ± 0.3; for Activity (%) SSVpo: single po dose in standard suspending vehicle (SSV); for Survival (days) SSVpo: single po dose in SSV
How it was run: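 Groups of 3-5 Moro SPF or NMRI mice infected with the ANKA strain of P. berghei received a single dose of trioxolane on day one post-infection. The compound was given in 3% ethanol and 7% Tween 80 or in SSV (0.5% w/v CMC, 0.5% v/v benzyl alcohol, 0.4% v/v Tween 80, 0.9% w/v sodium chloride in water). Antimalarial activity was scored as percent reduction in parasitemia on day three and as survival time versus untreated controls. Survival to day 30 counted as cure.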

SMILES | IC50 (ng/ml) NF54 [1] | IC50 (ng/ml) K1 [2] | Activity (%) po [3] | Activity (%) sc [3] | Survival (days) po [3] | Survival (days) sc [3] | Activity (%) SSVpo [3] | Survival (days) SSVpo [3] | IC50 [1] | IC50 [2]
O=C(OC1CCC2(CC1)OOC1(O2)C2CC3CC(C2)CC1C3)c1ccccc1 (stereo not shown) [OZ74] | 3.5 ng/mL (≈ 9.1 nM) | 2.3 ng/mL (≈ 5.98 nM) | 63% | 99.97% | 6.3 days | 10.0 days |  |  |  | 
N#CC1(c2ccc(Cl)c(Cl)c2)CCC2(CC1)OOC1(O2)C2CC3CC(C2)CC1C3 (stereo not shown) [OZ75] | 4.3 ng/mL (≈ 9.9 nM) | 2.4 ng/mL (≈ 5.53 nM) | 77% | 5% | 7.3 days | 5.0 days |  |  |  | 
COC1(c2ccc(F)cc2)CCC2(CC1)OOC1(O2)C2CC3CC(C2)CC1C3 (stereo not shown) [OZ77] | 2.2 ng/mL (≈ 5.66 nM) | 1.4 ng/mL (≈ 3.6 nM) | 99.9% | 98% | 9.0 days | 8.3 days | 74% | 6.0 days |  | 
CC(=O)OCC(=O)N1CCC2(CC1)OOC1(O2)C2CC3CC(C2)CC1C3 (stereo not shown) [OZ82] | 1.2 ng/mL (≈ 3.28 nM) | 0.48 ng/mL (≈ 1.31 nM) | 91% | 79% | 7.3 days | 7.0 days |  |  |  | 
c1ccc2c(c1)CCCC21OOC2(O1)C1CC3CC(C1)CC2C3 (stereo not shown) [OZ84] | 2.1 ng/mL (≈ 6.72 nM) | 1.4 ng/mL (≈ 4.48 nM) | 92% | 99.99% | 7.7 days | 14.7 days |  |  |  | 
c1ccc2c(c1)CCC1(C2)OOC2(O1)C1CC3CC(C1)CC2C3 (stereo not shown) [OZ85] | 1.8 ng/mL (≈ 5.76 nM) | 0.86 ng/mL (≈ 2.75 nM) | 34% | 99.7% | 6.0 days | 8.3 days |  |  |  | 
O=S(=O)(c1ccc(F)cc1)N1CCC2(CC1)OOC1(O2)C2CC3CC(C2)CC1C3 (stereo not shown) [OZ86] | 2.0 ng/mL (≈ 4.72 nM) | 0.80 ng/mL (≈ 1.89 nM) | 77% | 99.9% | 6.7 days | 11.3 days |  |  |  | 
O=C(CCl)N1CCC2(CC1)OOC1(O2)C2CC3CC(C2)CC1C3 (stereo not shown) [OZ87] | 4.4 ng/mL (≈ 12.9 nM) | 3.6 ng/mL (≈ 10.5 nM) | 22% | 53% | 5.7 days | 6.0 days |  |  |  | 
O=C(OCCC1CCC2(CC1)OOC1(O2)C2CC3CC(C2)CC1C3)c1ccc([N+](=O)[O-])cc1 (stereo not shown) [OZ88] | 4.2 ng/mL (≈ 9.18 nM) | 5.7 ng/mL (≈ 12.5 nM) | 62% | 99.1% | 6.0 days | 11.7 days |  |  |  | 
OCCC1CCC2(CC1)OOC1(O2)C2CC3CC(C2)CC1C3 (stereo not shown) [OZ89] |  |  | 94% | 99.8% | 7.3 days | 8.7 days | 89% | 6.7 days | 0.75 ng/mL (≈ 2.43 nM) | 0.3 ng/mL (≈ 0.973 nM)
CC1(O)CCC2(CC1)OOC1(O2)C2CC3CC(C2)CC1C3 (stereo not shown) [OZ90] |  |  | 89% | 99% | 7.0 days | 8.0 days | 95% | 7.0 days | 0.84 ng/mL (≈ 2.85 nM) | 0.44 ng/mL (≈ 1.49 nM)
CC1(C)C2CCC1(CS(=O)(=O)N1CCC3(CC1)OOC1(O3)C3CC4CC(C3)CC1C4)C(=O)C2 (stereo not shown) [OZ91] | 0.42 ng/mL (≈ 0.876 nM) | 1.4 ng/mL (≈ 2.92 nM) | 20% | 85% | 5.7 days | 7.3 days | 0% | 6.0 days |  | 
CCCCS(=O)(=O)N1CCC2(CC1)OOC1(O2)C2CC3CC(C2)CC1C3 (stereo not shown) [OZ92] | 0.40 ng/mL (≈ 1.04 nM) | 1.6 ng/mL (≈ 4.15 nM) | 81% | 99.98% | 6.7 days | 10.0 days | 35% | 6.3 days |  | 
O=C(CN1C(=O)c2ccccc2C1=O)N1CCC2(CC1)OOC1(O2)C2CC3CC(C2)CC1C3 (stereo not shown) [OZ93] | 0.92 ng/mL (≈ 2.03 nM) | 3.3 ng/mL (≈ 7.29 nM) | 57% | 100% | 6.7 days | 13.3 days | 3% | 6.0 days |  | 
c1ccc2c(c1)-c1ccccc1C21OOC2(O1)C1CC3CC(C1)CC2C3 (stereo not shown) [OZ94] | 28 ng/mL (≈ 80.8 nM) | 57 ng/mL (≈ 165 nM) | 21% | 11% | 6.0 days | 5.3 days | 0% | 5.7 days |  | 
O=[N+]([O-])c1ccc(C2(c3ccccc3)OOC3(O2)C2CC4CC(C2)CC3C4)cc1 (stereo not shown) [OZ95] | 1.3 ng/mL (≈ 3.3 nM) | 2.8 ng/mL (≈ 7.12 nM) | 31% | 49% | 6.0/6.0/6.0 days | 6.0/6.0/6.0 days | 0% | 6.0/6.0/6.0 days |  | 
O=[N+]([O-])c1cc(C2(c3ccc(Cl)c([N+](=O)[O-])c3)OOC3(O2)C2CC4CC(C2)CC3C4)ccc1Cl (stereo not shown) [OZ96] | > 10 ng/mL | 8.4 ng/mL (≈ 16.6 nM) | 12% | 19% | 5.7 days | 5.3 days | 14% | 5.7 days |  | 
O=C1c2ccccc2C(=O)N1CC1(c2ccccc2)CCC2(CC1)OOC1(O2)C2CC3CC(C2)CC1C3 (stereo not shown) [OZ97] | 1.8 ng/mL (≈ 3.6 nM) | 2.2 ng/mL (≈ 4.4 nM) | 59% | 66% | 6.7 days | 7.0 days | 2% | 5.3 days |  | 
COC(=O)C1(c2ccccc2)CCC2(CC1)OOC1(O2)C2CC3CC(C2)CC1C3 (stereo not shown) [OZ98] | 0.9 ng/mL (≈ 2.26 nM) | 2.3 ng/mL (≈ 5.77 nM) | 72% | 77% | 6.3 days | 7.3 days | 11% | 5.3 days |  | 
O=C(O)C1(c2ccccc2)CCC2(CC1)OOC1(O2)C2CC3CC(C2)CC1C3 (stereo not shown) [OZ99] | 27 ng/mL (≈ 70.2 nM) | 77 ng/mL (≈ 200 nM) | 30% | 36% | 6.3 days | 6.3 days | 40% | 5.7 days |  | 
CC(=O)Nc1ccc(S(=O)(=O)N2CCC3(CC2)OOC2(O3)C3CC4CC(C3)CC2C4)cc1 (stereo not shown) [OZ104] | 0.50 ng/mL (≈ 1.08 nM) | 1.4 ng/mL (≈ 3.03 nM) | 56% | 99.98% | 6.3 days | 12.0 days | 0% | 5.7 days |  | 
COC(=O)c1ccc(C2(c3ccc(C(=O)OC)c(C(=O)OC)c3)OOC3(O2)C2CC4CC(C2)CC3C4)cc1C(=O)OC (stereo not shown) [OZ106] | 1.7 ng/mL (≈ 2.93 nM) | 2.2 ng/mL (≈ 3.79 nM) | 0/0/0% | 0/0/0% | 5.3 days | 5.3 days | 0/0/0% | 5.0 days |  | 
O=C(O)c1nccnc1C(=O)N1CCC2(CC1)OOC1(O2)C2CC3CC(C2)CC1C3 (stereo not shown) [OZ109] | 24 ng/mL (≈ 57.8 nM) | 21 ng/mL (≈ 50.5 nM) | 2% | 24% | 5.7 days | 6.3 days | 0% | 5.7 days |  | 
CCOC(=O)N1C2CCC1CC1(C2)OOC2(O1)C1CC3CC(C1)CC2C3 (stereo not shown) [OZ110] | 2.1 ng/mL (≈ 5.78 nM) | 5.3 ng/mL (≈ 14.6 nM) | 50% | 97.97% | 6.7 days | 7.7 days | 0% | 5.3 days |  | 
O=C(O)COCC(=O)N1CCC2(CC1)OOC1(O2)C2CC3CC(C2)CC1C3 (stereo not shown) [OZ112] | >10/>10 ng/ml | >10/>10 ng/ml | 6% | 36% | 5.7 days | 6.3 days | 0% | 5.7 days |  | 
